Here are results for 20 compounds from patent US9624229B2, “Pyrimidine-2-amine compounds and their use as inhibitors of JAK kinases” (Rigel Pharmaceuticals, Inc., priority 2008, dated 2017).

Chain of Ba/F3 V617F cells (O60674 whole entry V617F): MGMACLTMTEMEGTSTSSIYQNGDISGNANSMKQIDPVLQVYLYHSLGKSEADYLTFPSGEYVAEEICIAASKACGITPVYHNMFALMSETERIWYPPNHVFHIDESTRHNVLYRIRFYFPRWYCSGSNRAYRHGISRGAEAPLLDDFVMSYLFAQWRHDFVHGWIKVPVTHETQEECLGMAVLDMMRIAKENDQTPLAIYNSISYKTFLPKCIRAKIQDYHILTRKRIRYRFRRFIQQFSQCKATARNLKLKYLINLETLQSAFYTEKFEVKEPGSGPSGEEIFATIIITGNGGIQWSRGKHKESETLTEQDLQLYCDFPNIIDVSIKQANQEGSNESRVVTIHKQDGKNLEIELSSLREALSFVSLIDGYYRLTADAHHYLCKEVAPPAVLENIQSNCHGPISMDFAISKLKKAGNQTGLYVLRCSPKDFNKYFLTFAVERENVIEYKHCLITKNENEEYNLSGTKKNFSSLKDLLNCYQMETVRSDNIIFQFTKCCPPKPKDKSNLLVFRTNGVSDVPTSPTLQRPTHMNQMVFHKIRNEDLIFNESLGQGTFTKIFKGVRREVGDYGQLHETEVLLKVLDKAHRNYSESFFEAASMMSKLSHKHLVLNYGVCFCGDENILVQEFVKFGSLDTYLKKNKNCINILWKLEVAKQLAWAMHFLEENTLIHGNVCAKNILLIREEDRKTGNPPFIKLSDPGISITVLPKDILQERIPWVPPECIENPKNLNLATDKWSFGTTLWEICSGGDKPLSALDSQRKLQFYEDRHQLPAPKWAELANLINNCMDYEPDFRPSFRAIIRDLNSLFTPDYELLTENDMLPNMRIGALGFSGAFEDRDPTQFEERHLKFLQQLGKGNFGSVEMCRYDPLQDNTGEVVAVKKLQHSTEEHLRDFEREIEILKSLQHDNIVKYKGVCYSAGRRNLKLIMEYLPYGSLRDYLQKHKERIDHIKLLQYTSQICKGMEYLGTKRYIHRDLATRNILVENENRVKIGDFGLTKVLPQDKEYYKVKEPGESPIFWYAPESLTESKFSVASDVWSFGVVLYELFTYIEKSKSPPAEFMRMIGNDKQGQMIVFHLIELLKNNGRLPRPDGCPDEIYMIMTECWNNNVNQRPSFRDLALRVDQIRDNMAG

This assay deals with Ba/F3 V617F cells (Homo sapiens, UniProt O60674, V617F, cells depend on it). Put plainly: Proliferation assay (Cell Titer-Glo, 72 h) utilizing Ba/F3 V617F cells. The format is cell-based, mouse. Particulars: Ba/F3 V617F cells, proliferation, level of activity given as class symbol, read-out: IC50 (the source's name). The method in brief:
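Readout is CellTiter-Glo luminescence after 72 h at 37 °C, giving IC50. Cells: Ba/F3 V617F, 1×10^5 cells/mL in RPMI with 10% FBS, treated in duplicate with 3-fold dilution series made from 5 mM DMSO stock, 1:250 in 5% FBS medium, added at 2×.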
For the compound `Cc1cc(Nc2nccc(-c3ccc(N4CCCOCC4)nc3)n2)ccc1N1C[C@@H]2C[C@H]1CN2C` [compound 206, 4-(6-(1,4-oxazepan-4-yl)pyridin-3-yl)-N-(3-methyl-4-((1S,4S)-5-methyl-2,5-diazabicyclo[2.2.1]heptan-2-yl)phenyl)pyrimidin-2-amine], the GI50 was less than 1000 nM.

As for `Cc1cc(Nc2nccc(-c3cnc4c(c3)OC(C)(C)C(=O)N4)n2)ccc1N1CC2(C)CN(C)CC(C)(C1)C2` [compound 207, 4-(2,2-dimethyl-3-oxo-3,4-dihydro-2H-pyrido[3,2-b][1,4]oxazin-7-yl)-N-(3-methyl-4-(1,5,7-trimethyl-3,7-diazabicyclo[3.3.1]nonan-3-yl)phenyl)pyrimidin-2-amine], the GI50 was less than 1000 nM.

In the case of `CN1CC2(C)CN(c3ccc(Nc4nccc(-c5cnc6c(c5)OC(C)(C)C(=O)N6)n4)cc3F)CC(C)(C1)C2` [compound 208, 4-(2,2-dimethyl-3-oxo-3,4-dihydro-2H-pyrido[3,2-b][1,4]oxazin-7-yl)-N-(3-fluoro-4-(1,5,7-trimethyl-3,7-diazabicyclo[3.3.1]nonan-3-yl)phenyl)pyrimidin-2-amine], the GI50 was in the range of 1000 to 10000 nM. With `Cc1cc(Nc2nccc(-c3cnc4c(c3)OCC(=O)N4)n2)ccc1N1C[C@@H]2C[C@H]1CN2C` [compound 209, 4-(3-oxo-3,4-dihydro-2H-pyrido[3,2-b][1,4]oxazin-7-yl)-N-(3-methyl-4-((1S,4S)-5-methyl-2,5-diazabicyclo[2.2.1]heptan-2-yl)phenyl)pyrimidin-2-amine], the GI50 was less than 1000 nM. The value for `Cc1cc(Nc2nccc(-c3cnc4c(c3)OCC(=O)N4)n2)ccc1N1C[C@@H]2C[C@H]1CO2` [compound 210, 4-(3-oxo-3,4-dihydro-2H-pyrido[3,2-b][1,4]oxazin-7-yl)-N-(3-methyl-4-((1S,4S)-5-oxa-2-azabicyclo[2.2.1]heptan-2-yl)phenyl)pyrimidin-2-amine] was less than 1000 nM; that for `CCOCCCNc1ccc(-c2ccnc(Nc3ccc(N4CC5(C)CN(C)CC(C)(C4)C5)c(C)c3)n2)cn1` [compound 211, 4-(6-(3-ethoxypropyl)aminopyridin-3-yl)-N-(3-methyl-4-(1,5,7-trimethyl-3,7-diazabicyclo[3.3.1]nonan-3-yl)phenyl)pyrimidin-2-amine] was less than 1000 nM; that for `Cc1cc(Nc2nccc(-c3ccc(N4C[C@@H](C)O[C@@H](C)C4)nc3)n2)ccc1N1CC2(C)CN(C)CC(C)(C1)C2` [compound 212, 4-(6-((2S,6R)-2,6-dimethylmorpholin-4-yl)pyridin-3-yl)-N-(3-methyl-4-(1,5,7-trimethyl-3,7-diazabicyclo[3.3.1]nonan-3-yl)phenyl)pyrimidin-2-amine] was less than 1000 nM. Regarding `CCCNc1ccc(-c2ccnc(Nc3ccc(N4CC5(C)CN(C)CC(C)(C4)C5)c(C)c3)n2)cn1` [compound 213, 4-(6-(propylamino)pyridin-3-yl)-N-(3-methyl-4-(1,5,7-trimethyl-3,7-diazabicyclo[3.3.1]nonan-3-yl)phenyl)pyrimidin-2-amine], the GI50 was less than 1000 nM.

As to `Cc1cc(Nc2nccc(-c3ccc(NCCCN(C)C)nc3)n2)ccc1N1CC2(C)CN(C)CC(C)(C1)C2` [compound 214, 4-(6-(3-dimethylamino)propylaminopyridin-3-yl)-N-(3-methyl-4-(1,5,7-trimethyl-3,7-diazabicyclo[3.3.1]nonan-3-yl)phenyl)pyrimidin-2-amine], the GI50 lay within 1000 to 10000 nM. As to `Cc1cc(Nc2nccc(-c3ccc(N4C[C@@H]5C[C@H]4CO5)nc3)n2)ccc1N1C[C@@H]2C[C@H]1CN2C` [compound 215, 4-(6-((1S,4S)-2-oxa-5-azabicyclo[2.2.1]heptan-5-yl)pyridin-3-yl)-N-(3-methyl-4-((1S,4S)-5-methyl-2,5-diazabicyclo[2.2.1]heptan-2-yl)phenyl)pyrimidin-2-amine], the GI50 is less than 1000 nM. As to `Cc1cc(Nc2nccc(-c3ccc(N4C[C@@H]5C[C@H]4CO5)nc3)n2)ccc1N1C[C@@H]2C[C@H]1CO2` [compound 216, 4-(6-((1S,4S)-5-oxa-2-azabicyclo[2.2.1]heptan-2-yl)pyridin-3-yl)-N-(3-methyl-4-((1S,4S)-5-oxa-2-azabicyclo[2.2.1]heptan-2-yl)phenyl)pyrimidin-2-amine], the GI50 was less than 1000 nM. As to `Cc1cc(Nc2nccc(-c3ccc(NCCC(C)C)nc3)n2)ccc1N1C[C@@H]2C[C@H]1CN2C` [compound 217, 4-(6-(3-methylbutyl)aminopyridin-3-yl)-N-(3-methyl-4-((1S,4S)-5-methyl-2,5-diazabicyclo[2.2.1]heptan-2-yl)phenyl)pyrimidin-2-amine], the GI50 is less than 1000 nM. For `Cc1cc(Nc2nccc(-c3ccc(NCCC(C)(C)C)nc3)n2)ccc1N1C[C@@H]2C[C@H]1CN2C` [compound 218, 4-(6-(3,3-dimethylbutyl)aminopyridin-3-yl)-N-(3-methyl-4-((1S,4S)-5-methyl-2,5-diazabicyclo[2.2.1]heptan-2-yl)phenyl)pyrimidin-2-amine], the GI50 was less than 1000 nM. With `COCCN(C)c1ccc(-c2ccnc(Nc3ccc(N4C[C@@H]5C[C@H]4CN5C)c(C)c3)n2)cn1` [compound 219, 4-(6-(2-methoxyethyl)(methyl)aminopyridin-3-yl)-N-(3-methyl-4-((1S,4S)-5-methyl-2,5-diazabicyclo[2.2.1]heptan-2-yl)phenyl)pyrimidin-2-amine], the GI50 was less than 1000 nM. On to `COCCN(C)c1ccc(-c2ccnc(Nc3ccc(N4C[C@@H]5C[C@H]4CO5)c(C)c3)n2)cn1` [compound 220, 4-(6-(2-methoxyethyl)(methyl)aminopyridin-3-yl)-N-(3-methyl-4-((1S,4S)-5-oxa-2-azabicyclo[2.2.1]heptan-2-yl)phenyl)pyrimidin-2-amine], for which the GI50 was less than 1000 nM.

With `COCCN(C)c1ccc(-c2ccnc(Nc3ccc(N4CC5(C)CN(C)CC(C)(C4)C5)c(C)c3)n2)cn1` [compound 221, 4-(6-(2-methoxyethyl)(methyl)aminopyridin-3-yl)-N-(3-methyl-4-(1,5,7-trimethyl-3,7-diazabicyclo[3.3.1]nonan-3-yl)phenyl)pyrimidin-2-amine], the GI50 was less than 1000 nM. Turning to `Cc1cc(Nc2nccc(-c3ccc(N4CCOCC4)nc3)n2)ccc1N1C[C@@H]2CC[C@H]1C2` [compound 222, 4-(6-(morpholin-4-yl)pyridin-3-yl)-N-(3-methyl-4-((1S,4R)-2-azabicyclo[2.2.1]heptan-2-yl)phenyl)pyrimidin-2-amine], the GI50 was less than 1000 nM. As to `Cc1cc(Nc2nccc(-c3cnc4c(c3)OC(C)(C)C(=O)N4)n2)ccc1N1C[C@@H]2CC[C@H]1C2` [compound 223, 4-(2,2-dimethyl-3-oxo-3,4-dihydro-2H-pyrido[3,2-b][1,4]oxazin-7-yl)-N-(3-methyl-4-((1S,4R)-2-azabicyclo[2.2.1]heptan-2-yl)phenyl)pyrimidin-2-amine], the GI50 was less than 1000 nM.

Take `CC1(C)Oc2cc(-c3ccnc(Nc4ccc(C5CC6CC5CN6S(C)(=O)=O)cc4)n3)cnc2NC1=O` (centres unmarked) [compound 226, 4-(2,2-dimethyl-3-oxo-3,4-dihydro-2H-pyrido[3,2-b][1,4]oxazin-7-yl)-N-(4-(2-methylsulfonyl-2-azabicyclo[2.2.1]heptan-5-yl)phenyl)pyrimidin-2-amine]: the GI50 lay in the range of 1000 to 10000 nM. The value for `CS(=O)(=O)N1CC2CC1CC2c1ccc(Nc2nccc(-c3ccc(N4CCOCC4)nc3)n2)cc1` (centres unmarked) [compound 227, 4-(6-(morpholin-4-yl)pyridin-3-yl)-N-(4-(2-methylsulfonyl-2-azabicyclo[2.2.1]heptan-5-yl)phenyl)pyrimidin-2-amine] was less than 1000 nM.
